Test results published in US20030134848A1, “Substituted 1-aza-2-imino-heterocycles and their use as nicotinic acetylcholin receptors activators” (priority 2000, published 2003).
Read-outs that look alike come from different tables or passages of the source.

Columns and labels:
[1] = target: T1, α4β2 subtype of nicotinic acetylcholine receptors (Rattus norvegicus, UniProt P09483+P12390); experiment: Binding assay at α4β2 subtype of nicotinic acetylcholine receptors ([3H]-cytisine, rat brain membrane); conditions: for remaining activity at 1 µM / remaining activity at 10 µM: read-out: control % of [3H]-cytisine binding
T1 construct: rat brain membrane obtained from whole homogenized brain; from tissue; host or cells: whole brain of Fischer-344 male rats, membrane fraction
T1 sequence (P09483 31-630): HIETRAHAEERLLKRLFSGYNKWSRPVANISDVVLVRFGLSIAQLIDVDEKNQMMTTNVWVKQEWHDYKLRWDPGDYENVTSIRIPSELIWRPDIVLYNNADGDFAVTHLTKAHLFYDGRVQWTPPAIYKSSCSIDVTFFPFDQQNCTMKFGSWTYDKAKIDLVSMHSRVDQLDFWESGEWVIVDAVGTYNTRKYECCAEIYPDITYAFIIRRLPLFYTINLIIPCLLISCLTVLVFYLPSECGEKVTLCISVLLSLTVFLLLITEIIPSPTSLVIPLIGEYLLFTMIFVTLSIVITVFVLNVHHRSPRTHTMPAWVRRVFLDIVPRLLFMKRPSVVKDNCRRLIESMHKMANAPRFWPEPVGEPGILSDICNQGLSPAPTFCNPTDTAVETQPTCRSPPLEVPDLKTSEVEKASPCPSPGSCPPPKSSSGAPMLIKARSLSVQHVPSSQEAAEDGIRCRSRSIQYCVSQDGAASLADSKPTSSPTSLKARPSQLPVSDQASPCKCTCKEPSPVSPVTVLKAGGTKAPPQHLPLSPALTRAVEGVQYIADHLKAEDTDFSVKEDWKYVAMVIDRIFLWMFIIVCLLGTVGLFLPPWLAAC
T1 sequence (P12390 25-500): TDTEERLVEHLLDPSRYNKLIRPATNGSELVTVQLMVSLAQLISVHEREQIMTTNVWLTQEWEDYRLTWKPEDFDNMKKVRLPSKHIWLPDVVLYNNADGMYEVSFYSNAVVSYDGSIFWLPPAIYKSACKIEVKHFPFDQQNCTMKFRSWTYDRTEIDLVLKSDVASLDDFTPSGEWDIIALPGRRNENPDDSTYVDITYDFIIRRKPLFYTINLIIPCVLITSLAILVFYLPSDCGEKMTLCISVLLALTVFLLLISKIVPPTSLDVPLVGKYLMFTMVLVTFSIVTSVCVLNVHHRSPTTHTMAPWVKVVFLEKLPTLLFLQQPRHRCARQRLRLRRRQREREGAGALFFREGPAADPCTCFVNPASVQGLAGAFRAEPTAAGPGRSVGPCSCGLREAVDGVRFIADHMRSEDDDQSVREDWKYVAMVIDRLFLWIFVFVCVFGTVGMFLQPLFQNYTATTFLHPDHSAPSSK
Description: (§1) The methods for evaluating the binding capabilities of the compounds at nicotinic acetylcholine receptors are different by subtypes of receptors. The binding capabilities of the compounds at α4β2 nicotinic acetylcholine receptors are examined using rat brain membrane obtained from whole homogenized brain, and determining the inhibiting rate of the compounds against [^3H]-cytisine binding to said brain membrane. Furthermore, the binding capabilities of the compounds at α1β1γδ nicotinic acetylcholine receptors are examined using homogenized rat muscle, and determining the inhibiting rate of the compounds against [^3H]-α-bungarotoxin binding to said muscle homogenate.
The affinity of the compounds of the present invention to α4β2 subtype of nicotinic acetylcholine receptors was performed by the following method, which was modified method described by Pabreza L. A., Dhawan S. & Kellar K. J., Mol. Pharm., 39, 9-12 (1990), and by Anderson D. J. & Arneric S. P., Eur. J. Pharm., 253, 261-267 (1994).
(1) Preparation of Rat Brain Membrane Containing α4β2 Subtype of Nicotinic Acetylcholine Receptors
Fischer-344 strain male rats (body weight: 200-240 g; 9 weeks old) obtained from Charles River Japan were used. Rats were housed in the breeding cage controlled of the room temperature at 23±1° C., and the humidity of 55±5% for 1 to 4 weeks. Rats (3 to 4 rats per a cage) were housed with lights on for 12 hours daily (from 7:00 to 19:00), and allowed free access to food and water.
Preparation of rat brain membrane containing α4β2 subtype of nicotinic acetylcholine receptors was performed as follow. That is, rat brains were isolated just after sacrificed by decapitation, washed with ice-cooled saline solution and then frozen at −80° C. with liquid nitrogen and stored till using. After thawing the frozen brain, the brain was homogenized in 10 volumes of ice-cooled buffer solution (50 mM of Tris-HCl, 120 mM of NaCl, 5 mM of KCl, 1 mM of MgCl2, 2 mM of CaCl2; pH 7.4; 4° C.) using homogenizer (HG30, Hitachi Kohki Ltd.) for 30 seconds, and the homogenate were centrifuged under 1,000×G for 10 minutes at 4° C. The resulting supernatant was separated and the pellet was homogenized again with half volume of aforementioned prior buffer solution and centrifuged under the same conditions. Combined supernatant was further centrifuged under 40,000×G for 20 minutes at 4° C. The pellet was suspended in buffer solution and used for binding assays at receptors.
(2) Experiments of α4β2 Subtype of Nicotinic Acetylcholine Receptors Binding
Suspensions of membrane pellets containing 400-600 μg of protein were added to test tubes containing test compounds and [^3H]-cytisine (2 nM) in a final volume of 200 μl and incubated for 75 minutes in ice-cooled bath. The samples were isolated by vacuum filtration onto Whatman GF/B filters, which were prerinsed with 0.5% polyethylenimine just prior to sample filtration, using Brandel multi manifold cell harvester. The filters were rapidly washed with buffer solution (3×1 ml). The filters were counted in 3 ml of clearsol I (Nacalai Tesque Inc.).
The analyses of the experimental results were conducted by using the Accufit Competition Program (Beckman Ltd.).

[2] = target: α1β1γδ subtype of nicotinic acetylcholine receptors (Rattus norvegicus, UniProt P18916+P25108+P25110); experiment: biochemical; format: binding; conditions: for remaining activity at 100 µM / remaining activity at 1000 µM: read-out: control % of [3H]-α-Bgt binding; for Ki: read-out: Affinities for receptors Ki α1β1γδ, rat muscle extract, [3H]-α-Bgt 1 nM
Sequence of α1β1γδ subtype of nicotinic acetylcholine receptors (P25109 24-501): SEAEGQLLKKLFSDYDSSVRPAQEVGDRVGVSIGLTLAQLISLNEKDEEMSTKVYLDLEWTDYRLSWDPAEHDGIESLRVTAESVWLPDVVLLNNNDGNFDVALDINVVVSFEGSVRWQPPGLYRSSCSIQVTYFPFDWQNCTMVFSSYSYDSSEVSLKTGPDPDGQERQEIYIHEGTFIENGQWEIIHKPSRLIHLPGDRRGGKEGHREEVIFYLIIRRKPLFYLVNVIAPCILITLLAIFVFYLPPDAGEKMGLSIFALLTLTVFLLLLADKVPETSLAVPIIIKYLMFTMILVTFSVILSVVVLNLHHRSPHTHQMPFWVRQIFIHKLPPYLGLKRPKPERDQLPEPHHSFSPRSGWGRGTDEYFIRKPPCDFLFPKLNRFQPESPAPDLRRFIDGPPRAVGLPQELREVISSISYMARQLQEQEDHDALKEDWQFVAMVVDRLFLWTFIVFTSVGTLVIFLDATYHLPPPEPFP
Sequence of α1β1γδ subtype of nicotinic acetylcholine receptors (P25110 22-517): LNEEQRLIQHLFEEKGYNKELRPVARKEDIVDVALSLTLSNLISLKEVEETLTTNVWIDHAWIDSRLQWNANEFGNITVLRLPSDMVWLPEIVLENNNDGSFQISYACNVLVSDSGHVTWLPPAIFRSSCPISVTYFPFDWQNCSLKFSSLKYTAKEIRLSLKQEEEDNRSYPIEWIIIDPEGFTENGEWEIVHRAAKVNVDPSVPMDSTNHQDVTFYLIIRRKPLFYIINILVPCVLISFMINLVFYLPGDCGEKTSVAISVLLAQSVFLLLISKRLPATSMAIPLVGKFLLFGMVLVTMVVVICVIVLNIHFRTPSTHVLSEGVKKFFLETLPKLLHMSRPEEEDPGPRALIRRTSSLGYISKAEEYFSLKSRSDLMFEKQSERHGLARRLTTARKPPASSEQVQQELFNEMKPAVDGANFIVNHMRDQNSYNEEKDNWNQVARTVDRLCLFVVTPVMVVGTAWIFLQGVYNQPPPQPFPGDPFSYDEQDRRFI
Sequence of α1β1γδ subtype of nicotinic acetylcholine receptors (P25108 21-457): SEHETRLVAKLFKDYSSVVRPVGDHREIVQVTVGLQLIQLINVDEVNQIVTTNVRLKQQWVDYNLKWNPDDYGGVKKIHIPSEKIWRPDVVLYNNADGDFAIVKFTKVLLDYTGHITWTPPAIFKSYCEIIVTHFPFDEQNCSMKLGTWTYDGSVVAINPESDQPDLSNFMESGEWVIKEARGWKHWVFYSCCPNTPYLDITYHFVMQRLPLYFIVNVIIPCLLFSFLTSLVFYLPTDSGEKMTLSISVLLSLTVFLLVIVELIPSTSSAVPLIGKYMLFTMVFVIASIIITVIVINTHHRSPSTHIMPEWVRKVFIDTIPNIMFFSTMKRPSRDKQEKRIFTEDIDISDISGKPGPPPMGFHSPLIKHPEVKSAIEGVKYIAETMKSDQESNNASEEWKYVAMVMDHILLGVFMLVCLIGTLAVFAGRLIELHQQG
Sequence of α1β1γδ subtype of nicotinic acetylcholine receptors (P18916 23-519): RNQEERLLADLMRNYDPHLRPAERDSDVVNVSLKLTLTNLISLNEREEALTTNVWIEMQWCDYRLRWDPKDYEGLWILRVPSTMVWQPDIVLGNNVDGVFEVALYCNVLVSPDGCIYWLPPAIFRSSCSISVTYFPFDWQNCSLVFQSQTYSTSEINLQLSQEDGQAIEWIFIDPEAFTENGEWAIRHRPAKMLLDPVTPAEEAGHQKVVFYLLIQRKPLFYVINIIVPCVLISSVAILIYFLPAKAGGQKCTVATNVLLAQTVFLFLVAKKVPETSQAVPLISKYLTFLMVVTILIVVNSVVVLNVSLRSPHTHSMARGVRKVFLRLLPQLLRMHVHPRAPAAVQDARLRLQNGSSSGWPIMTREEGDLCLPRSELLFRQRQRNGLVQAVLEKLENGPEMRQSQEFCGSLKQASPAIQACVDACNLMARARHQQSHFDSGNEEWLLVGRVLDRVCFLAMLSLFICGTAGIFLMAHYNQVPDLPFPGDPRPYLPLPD
Description: as §1
The affinity of the compounds of the present invention to α1β1γδ subtype of nicotinic acetylcholine receptors was measured by the following method, which was modified method described by Garcha H. S., Thomas P., Spivak C. E., Wonnacott S. & Stolerman I. P., Psychropharmacology, 110, 347-354 (1993).
(1) Preparation of Rat Skeletal Muscles Containing α1β1γδ Subtype of Nicotinic Acetylcholine Receptors
The substantially same animals described in the Biological Experiment 1 were used.
The isolation of α1β1γδ subtype of nicotinic acetylcholine receptors was performed as follow. That is, rat posterior skeletal muscles were isolated just after sacrificed by decapitation, washed with ice-cooled saline solution and then frozen at −80° C. with liquid nitrogen and stored till using. After thawing the frozen muscles, tissue was homogenized (40% w/v) with buffer solution [2.5 mM of sodium phosphate buffer (pH:7.2), 90 mM of NaCl, 2 mM of KCl, 1 mM of EDTA, 2 mM of benzamidine, 0.1 mM of benzethonium chloride, 0.1 mM of PMSF, 0.01% of sodium azide] in Waring blender (Waring blender 34BL97; WARING PRODUCTS DIVISION DYNAMICS CORPORATION OF AMERICA) for 60 seconds. The homogenate were centrifuged under 20,000×G for 60 minutes at 4° C. The supernatant was separated and the resulting pellet was added to the same buffer (1.5 ml/g wet weight), and homogenized under the same conditions. Triton X100 (2% w/v) was added and the mixture was stirred for 3 hours at 4° C. The centrifugation at 100,000×G for 60 minutes at 4° C. yielded the rat muscle extract as supernatant. This was stored at 4° C. for up to 4 weeks, and used for binding assays at receptors.
(2) Experiments of α1β1γδ Subtype of Nicotinic Acetylcholine Receptors Binding
Receptors binding experiments were performed as follow. That is, the extract of rat muscle containing 600-900 μg of protein was added to test tubes containing test compounds and incubated for 15 minutes at 37° C. Then, to this mixture was added 1 nM of [^3H]-α-bungarotoxin (α-Bgt) and further incubated for 2 hours. The samples were isolated by vacuum filtration onto Whatman GF/B filters, which were prerinsed with 0.5% polyethylenimine just prior to sample filtration, using Brandel multi manifold cell harvester. The filters were rapidly rinsed with washing solution (10 mM of KH2PO4, 150 mM of NaCl, pH 7.2, room temperature) (5×1 ml). The filters were counted in 3 ml of clearsol I (Nacalai Tesque Inc.). The determination of nonspecific binding was incubated in the presence of 1 μM α-Bgt. The solutions containing α-Bgt (labeled/non-labeled) were prepared by using buffer solution containing 0.25% of BSA. In the receptor binding experiments, said buffer solution was added for adjusting the final concentration of BSA to be 0.05%.
The analyses of the experimental results were conducted by the same way as described in the Biological Experiment 1.

[3] = 1 μM of test compound, rat brain membrane
[4] = 10 μM of test compound, rat brain membrane

SMILES	remaining activity at 1 µM [1, 3]	remaining activity at 10 µM [1, 4]	remaining activity at 100 µM [2]	remaining activity at 1000 µM [2]	Ki [1]	Ki [2]	other results
COc1ccc(Sc2ccccc2CCn2ccnc2N)cc1 [Compound 33, 2-amino-1-{2-[2-(4-methoxyphenyl)thiophenyl]ethyl}-imidazole]	111%	92%	119%	85%			
Nc1nccn1CCc1ccncc1 [Compound 20, 2-amino-1-[2-(4-pyridyl)ethyl]imidazole]	97%	95%	109%	90%			
Nc1nccn1CCc1ccc(Cl)cc1 [Compound 17, 2-amino-1-[2-(4-chlorophenyl)ethyl]imidazole]	97%	78%	83%	67%			
Nc1nccn1CCc1ccccn1 [Compound 19, 2-amino-1-[2-(2-pyridyl)ethyl]imidazole]	103%	106%	106%	86%			
N=c1ncccn1CCc1ccc(Cl)nc1 [Compound 3, 1-[2-(6-chloro-3-pyridyl)ethyl]-2-imino-1,2-dihydropyrimidine]			72%	39%			remaining activity at 1 µM [1]: 72%; remaining activity at 10 µM [1]: 17%
CC(=O)Cn1ccsc1=N [Compound 2, 3-acetonyl-2-imino-2,3-dihydrothiazole]	107%	101%					
N=C1SCCN1CC(O)c1ccc(Cl)nc1 (centres unmarked) [Compound 9, 1-(6-Chloro-3-pyridyl)-2-(2-imino-3-thiazolidinyl)-1-ethanol]			72%	35%			remaining activity at 1 µM [1]: 97%; remaining activity at 10 µM [1]: 43%
N=C1SCCN1CCc1ccc(Cl)nc1 [Compound 5, 3-[2-(6-chloro-3-pyridyl)ethyl]-2-iminothiazolidine]					0.0048 µM	34 µM	
CN1CCCC1c1cccnc1 (single isomer, unassigned; (-)) [Nicotine, (−)-nicotine, reference compound]						182 µM	
N=c1ccc(Cl)nn1CCc1ccc(Cl)nc1 [Compound 15, 6-chloro-2-[2-(6-chloro-3-pyridyl)ethyl]-3-imino-2,3-dihydropyridazine]			93%	61%			remaining activity at 1 µM [1]: 60%; remaining activity at 10 µM [1]: 12%
N=c1ccccn1CCc1ccc(Cl)nc1 [Compound 16, 1-[2-(6-chloro-3-pyridyl)ethyl]-2-imino-1,2-dihydropyridine]					0.061 µM	227 µM	
Nc1nccn1CCc1ccccc1Sc1ccc(O)cc1 [Compound 32, 2-amino-1-{2-[2-(4-hydroxyphenyl)thiophenyl]ethyl}-imidazole]	102%	73%	107%	81%			
N=c1sccn1CCc1ccc(Cl)nc1 [Compound 22, 3-[2-(6-chloro-3-pyridyl)ethyl]-2-imino-2,3-dihydrothiazole]					0.0074 µM	132 µM	
N=C1SCCN1CC(=O)c1ccccc1 [Compound 1, 2-imino-3-phenacylthiazolidine]	93%	68%					
Cc1sc(=N)n(CCc2ccc(Cl)nc2)c1C [Compound 10, 3-[2-(6-chloro-3-pyridyl)ethyl]-2-imino-4,5-dimethyl-2,3-dihydrothiazole]					0.051 µM	215 µM	
Cc1nc(N)n(CCc2ccc(Cl)nc2)c1C [Compound 21, 2-amino-1-[2-(6-chloro-3-pyridyl)ethyl]-4,5-dimethylimidazole]					0.097 µM	175 µM	
N=c1sccn1CCc1cnc(Cl)s1 [Compound 24, 3-[2-(2-chloro-5-thiazolyl)ethyl]-2-imino-2,3-dihydrothiazole]					0.035 µM	58 µM	
Cc1cn(CCc2ccc(Cl)nc2)c(=N)s1 [Compound 6, 3-[2-(6-chloro-3-pyridyl)ethyl]-2-imino-5-methyl-2,3-dihydro-thiazole]			82%	61%			remaining activity at 1 µM [1]: 77%; remaining activity at 10 µM [1]: 35%
Cc1cncc(CCn2ccsc2=N)c1 [Compound 28, 2-imino-3-[2-(5-methyl-3-pyridyl)ethyl]-2,3-dihydrothiazole]						94 µM	Ki ([1]; rat brain membrane, [3H]-cytisine 2 nM, read-out: Affinities for receptors Ki α4β2): 0.027 µM
Nc1nccn1CCc1ccc(Cl)nc1 [Compound 7, 2-amino-1-[2-(6-chloro-pyridyl)ethyl]imidazole]					0.0049 µM	184 µM	
Cc1csc(=N)n1CCc1ccc(Cl)nc1 [Compound 4, 3-[2-(6-chloro-3-pyridyl)ethyl]-2-imino-4-methyl-2,3-dihydrothiazole]					0.0056 µM	10 µM	
CC(Cn1ccsc1=N)c1ccc(Cl)nc1 (centres unmarked) [Compound 18, 3-[2-(6-chloro-3-pyridyl)propyl]-2-imino-2,3-dihydrothiazole]					0.084 µM	173 µM	
Nc1nccn1CCc1cncnc1Cl [Compound 35, 2-amino-1-[2-(4-chloro-5-pyrimidyl)ethyl]imidazole]			87%	49%			remaining activity at 1 µM [1]: 61%; remaining activity at 10 µM [1]: 17%
Nc1nccn1CCc1ccc(O)cc1 [Compound 26, 2-amino-1-[2-(4-hydroxyphenyl)ethyl]imidazole]	93%	60%	81%	50%			
N=C1SCCN1CC(=O)c1ccc(Cl)nc1 [Compound 8, 1-(6-chloro-3-pyridyl)-2-(2-imino-3-thiazolidinyl)-1-ethanone]					0.062 µM	1830 µM	
